The data set concerns CCRIS mutagenicity, Ames/micronucleus/aberration tests. Kind of data set: CCRIS mutagenicity studies.
Where [1] appears, read: Test System: AMES SALMONELLA TYPHIMURIUM, Strain/Indicator: TA98, Metabolic Activation: NONE, Method: PREINCUBATION

The source made the active and inactive calls. No rule for the calls is given here.

For `OC[P+](CO)(CO)CO`, the mutagenic call by setting is: (End Point: IN VITRO CHROMOSOMAL ABERRATIONS, Test System: CHO CELLS, Metabolic Activation: NONE) “active; positive”; (Test System: AMES SALMONELLA TYPHIMURIUM, Strain/Indicator: TA97, Metabolic Activation: HAMSTER, LIVER, S-9, AROCLOR 1254 (10%), Method: PREINCUBATION) “inactive; negative”; (Test System: AMES SALMONELLA TYPHIMURIUM, Strain/Indicator: TA97, Metabolic Activation: HAMSTER, LIVER, S-9, AROCLOR 1254 (30%), Method: PREINCUBATION) “inactive; negative”; (Test System: AMES SALMONELLA TYPHIMURIUM, Strain/Indicator: TA97, Metabolic Activation: NONE, Method: PREINCUBATION) “inactive; negative”; (Test System: AMES SALMONELLA TYPHIMURIUM, Strain/Indicator: TA97, Metabolic Activation: RAT, LIVER, S-9, AROCLOR 1254 (10%), Method: PREINCUBATION) “inactive; negative”; (Test System: AMES SALMONELLA TYPHIMURIUM, Strain/Indicator: TA97, Metabolic Activation: RAT, LIVER, S-9, AROCLOR 1254 (30%), Method: PREINCUBATION) “inactive; negative”. In addition, the mutagenic call by setting is: (Test System: AMES SALMONELLA TYPHIMURIUM, Strain/Indicator: TA98, Metabolic Activation: HAMSTER, LIVER, S-9, AROCLOR 1254 (10%), Method: PREINCUBATION) “inactive; negative”; (Test System: AMES SALMONELLA TYPHIMURIUM, Strain/Indicator: TA98, Metabolic Activation: HAMSTER, LIVER, S-9, AROCLOR 1254 (30%), Method: PREINCUBATION) “inactive; negative”; (Test System: AMES SALMONELLA TYPHIMURIUM, Strain/Indicator: TA98, Metabolic Activation: HAMSTER, LIVER, S-9, AROCLOR 1254, Method: PREINCUBATION) “inactive; negative”; under setting [1], “inactive; negative”; (Test System: AMES SALMONELLA TYPHIMURIUM, Strain/Indicator: TA98, Metabolic Activation: RAT, LIVER, S-9, AROCLOR 1254 (10%), Method: PREINCUBATION) “inactive; negative”; (Test System: AMES SALMONELLA TYPHIMURIUM, Strain/Indicator: TA98, Metabolic Activation: RAT, LIVER, S-9, AROCLOR 1254 (30%), Method: PREINCUBATION) “inactive; negative”. Further, the mutagenic call (Test System: AMES SALMONELLA TYPHIMURIUM, Strain/Indicator: TA98, Metabolic Activation: RAT, LIVER, S-9, AROCLOR 1254, Method: PREINCUBATION) was “inactive; negative”; the mutagenic call (Test System: AMES SALMONELLA TYPHIMURIUM, Strain/Indicator: TA100, Metabolic Activation: HAMSTER, LIVER, S-9, AROCLOR 1254 (10%), Method: PREINCUBATION) is “inactive; negative”; the mutagenic call (Test System: AMES SALMONELLA TYPHIMURIUM, Strain/Indicator: TA100, Metabolic Activation: HAMSTER, LIVER, S-9, AROCLOR 1254 (30%), Method: PREINCUBATION) is “inactive; negative”; the mutagenic call (Test System: AMES SALMONELLA TYPHIMURIUM, Strain/Indicator: TA100, Metabolic Activation: HAMSTER, LIVER, S-9, AROCLOR 1254, Method: PREINCUBATION) was “inactive; negative”; the mutagenic call (Test System: AMES SALMONELLA TYPHIMURIUM, Strain/Indicator: TA100, Metabolic Activation: NONE, Method: PREINCUBATION) is “inactive; negative”; the mutagenic call (Test System: AMES SALMONELLA TYPHIMURIUM, Strain/Indicator: TA100, Metabolic Activation: RAT, LIVER, S-9, AROCLOR 1254 (10%), Method: PREINCUBATION) is “inactive; negative”. Moreover, the mutagenic call was “inactive; negative” (Test System: AMES SALMONELLA TYPHIMURIUM, Strain/Indicator: TA100, Metabolic Activation: RAT, LIVER, S-9, AROCLOR 1254 (30%), Method: PREINCUBATION); “inactive; negative” (Test System: AMES SALMONELLA TYPHIMURIUM, Strain/Indicator: TA100, Metabolic Activation: RAT, LIVER, S-9, AROCLOR 1254, Method: PREINCUBATION); “inactive; negative” (Test System: AMES SALMONELLA TYPHIMURIUM, Strain/Indicator: TA1535, Metabolic Activation: HAMSTER, LIVER, S-9, AROCLOR 1254 (10%), Method: PREINCUBATION); “inactive; negative” (Test System: AMES SALMONELLA TYPHIMURIUM, Strain/Indicator: TA1535, Metabolic Activation: HAMSTER, LIVER, S-9, AROCLOR 1254 (30%), Method: PREINCUBATION); “inactive; negative” (Test System: AMES SALMONELLA TYPHIMURIUM, Strain/Indicator: TA1535, Metabolic Activation: HAMSTER, LIVER, S-9, AROCLOR 1254, Method: PREINCUBATION); “inactive; negative” (Test System: AMES SALMONELLA TYPHIMURIUM, Strain/Indicator: TA1535, Metabolic Activation: NONE, Method: PREINCUBATION). The mutagenic call by setting is: (Test System: AMES SALMONELLA TYPHIMURIUM, Strain/Indicator: TA1535, Metabolic Activation: RAT, LIVER, S-9, AROCLOR 1254 (10%), Method: PREINCUBATION) “inactive; negative”; (Test System: AMES SALMONELLA TYPHIMURIUM, Strain/Indicator: TA1535, Metabolic Activation: RAT, LIVER, S-9, AROCLOR 1254 (30%), Method: PREINCUBATION) “inactive; negative”; (Test System: AMES SALMONELLA TYPHIMURIUM, Strain/Indicator: TA1535, Metabolic Activation: RAT, LIVER, S-9, AROCLOR 1254, Method: PREINCUBATION) “inactive; negative”; (Test System: AMES SALMONELLA TYPHIMURIUM, Strain/Indicator: TA1537, Metabolic Activation: HAMSTER, LIVER, S-9, AROCLOR 1254 (10%), Method: PREINCUBATION) “inactive; negative”; (Test System: AMES SALMONELLA TYPHIMURIUM, Strain/Indicator: TA1537, Metabolic Activation: HAMSTER, LIVER, S-9, AROCLOR 1254 (30%), Method: PREINCUBATION) “inactive; negative”; (Test System: AMES SALMONELLA TYPHIMURIUM, Strain/Indicator: TA1537, Metabolic Activation: HAMSTER, LIVER, S-9, AROCLOR 1254, Method: PREINCUBATION) “inactive; negative”. Also, the mutagenic call (Test System: AMES SALMONELLA TYPHIMURIUM, Strain/Indicator: TA1537, Metabolic Activation: NONE, Method: PREINCUBATION) was “inactive; negative”; the mutagenic call (Test System: AMES SALMONELLA TYPHIMURIUM, Strain/Indicator: TA1537, Metabolic Activation: RAT, LIVER, S-9, AROCLOR 1254 (10%), Method: PREINCUBATION) is “inactive; negative”; the mutagenic call (Test System: AMES SALMONELLA TYPHIMURIUM, Strain/Indicator: TA1537, Metabolic Activation: RAT, LIVER, S-9, AROCLOR 1254 (30%), Method: PREINCUBATION) was “inactive; negative”; the mutagenic call (Test System: AMES SALMONELLA TYPHIMURIUM, Strain/Indicator: TA1537, Metabolic Activation: RAT, LIVER, S-9, AROCLOR 1254, Method: PREINCUBATION) is “inactive; negative”; the mutagenic call (Test System: MOUSE LYMPHOMA, Strain/Indicator: L5178Y (TK+/TK-), Metabolic Activation: NONE, Method: SUSPENSION/PLATE) was “active; positive”.

In the case of `Nc1ccc(-c2cc(Cl)c(N)c(Cl)c2)cc1Cl`, the mutagenic call by setting is: (Test System: AMES SALMONELLA TYPHIMURIUM, Strain/Indicator: TA98/1,8-DNP6, Metabolic Activation: HAMSTER, LIVER, S-9, Method: PREINCUBATION) “active; positive”; (Test System: AMES SALMONELLA TYPHIMURIUM, Strain/Indicator: TA98, Metabolic Activation: HAMSTER, LIVER, S-9, Method: PREINCUBATION) “active; positive”; under setting [1], “active; positive”; (Test System: AMES SALMONELLA TYPHIMURIUM, Strain/Indicator: TA100, Metabolic Activation: HAMSTER, LIVER, S-9, Method: PREINCUBATION) “active; positive”.

`CC(=O)[C@]1(O)Cc2c(O)c3c(c(O)c2[C@@H](O[C@H]2C[C@H](N)[C@H](O)[C@H](C)O2)C1)C(=O)c1ccccc1C3=O`: the mutagenic call runs as follows: (Test System: AMES SALMONELLA TYPHIMURIUM, Strain/Indicator: GW257, Metabolic Activation: NONE, Method: STANDARD PLATE) “active; positive”; (Test System: AMES SALMONELLA TYPHIMURIUM, Strain/Indicator: TA98, Metabolic Activation: NONE, Method: STANDARD PLATE) “active; positive”; (Test System: AMES SALMONELLA TYPHIMURIUM, Strain/Indicator: TA100, Metabolic Activation: NONE, Method: STANDARD PLATE) “active; positive”; (Test System: AMES SALMONELLA TYPHIMURIUM, Strain/Indicator: TA1538, Metabolic Activation: NONE, Method: STANDARD PLATE) “active; positive”; (Test System: CHINESE HAMSTER V-79, Strain/Indicator: V-79/6-THIOGUANINE, Metabolic Activation: NONE, Method: SUSPENSION/PLATE) “active; positive”; (Test System: UDS RAT HEPATOCYTES, Strain/Indicator: THY INCORP, Metabolic Activation: NONE, Method: AUTOMATIC COLONY COUNTER) “active; positive”.

`CNC(=O)C(C)SCCSP(=O)(OC)OC` (configuration not stated): the mutagenic call (Test System: E. COLI, Strain/Indicator: WP2, Metabolic Activation: NONE, Method: STANDARD PLATE) was “active; positive” and the mutagenic call (Test System: E. COLI, Strain/Indicator: WP2 UVRA, Metabolic Activation: NONE, Method: STANDARD PLATE) was “active; positive”.
